# “Also recorded” adds a separate entry of the source.
# How the values were obtained:
# [1] = system: activated Caco2 cell line; test: Viability of activated Caco2 cells; format: cell-based; conditions: even higher concentrations of NFA; FIG. 3
# [2] = system: mice sensitized by nasal aspiration of Aspergillus fumigatus antigen; test: Aspergillus fumigatus antigen murine asthma model, intra-tracheal NFA; format: in vivo; conditions: 100 μg NFA intra-tracheal, days 0-21
# IL9 transgenic mice = test: Mucin production in lungs of IL9 transgenic mice; format: in vivo; conditions: IT once daily for three days; NFA 100 μg
# Experimental: Certified virus-free male and female IL9 transgenic mice (IL9TG5-FVB/N) 5-6 weeks of age were bred in our laboratories. Male and female FVB/N mice 5-6 weeks of age were purchased from Jackson Laboratories (Bar Harbor Me.). Animals were housed in high-efficiency, particulate filtered air and allowed free access to food and water for 3 to 7 days prior to experimental manipulation. The animal facilities were maintained at 22° C. and the light:dark cycle was automatically controlled (10:14 hour light:dark).
# Animals were phenotyped, naïve, or 24 hrs after receiving intra-tracheal (IT) shame (vehicle) treatment, or drugs in the same vehicle as was used in identically treated controls. Mice were treated IT once daily for three days. NFA (100 μg) or antibody to IL-9 were administered in PBS IT. Treatment responses were measured by the assessment of mucin inhibition by histologic exam (PAS staining of greater than 10 sections through the treated and control lungs or western blots of MUC 1, MUC2 and MUC3 expression from the same lungs.
# The up-regulation of mucus production in the IL9 transgenic is specifically associated with increased steady-state mRNA levels of MUC2 and MUC5AC as shown by RT-PCR (FIG. 9).
# activated LHL4 cells = test: Eotaxin ELISA, activated LHL4 cells; format: cell-based; conditions: increasing concentrations
# Experimental: Activated LHL4 cells that express and secrete eotaxin have been produced and used to test for inhibitors of eotaxin production. These cells were assayed in vitro for eotaxin by an ELISA technique well known in the art (R&D Systems).
# activated Caco2 cells = test: PAS staining for mucin in activated Caco2 cells; conditions: activated Caco2 cells; 100 μm for NFA and 300 μm for DIDS; vs untreated cells
# NCI-H292/hCLCA1 cells = test: AB/PAS staining of mucous glycoconjugates in NCI-H292/hCLCA1 cells; format: cell-based, human; conditions: NFA 100 μM, MFA 125 or 250 μM, talniflumate 12.5, 25 or 50 μM; vs untreated cells
# Experimental: For the determination of mucous glycoconjugate production, NCI-H292/ctl and NCI-H292/hCLCA1 (AAF 15) cells were cultured in 24-well plates for 3 days. Cells were then fixed with Formalin and mucous glycoconjugates were visualized by AB/PAS staining (Sigma). […] For chloride channel blockage studies, cells were cultured in the presence of niflumic acid (NFA) (Sigma) at 100 μM concentration, mefanamic acid (MFA) at 125 or 250 μM or talniflumate at 12.5, 25 or 50 μM, or media alone.
# For the determination of mucous glycoconjugate production, NCI-H292/hCLCA1 cells were cultured in 24-well plates for 3 days with at concentrations of 0 to 150 μM of the talniflumate enantiomers or media alone (control). Cells were then fixed with Formalin and mucous glycoconjugates were visualized by AB/PAS staining (Sigma). […] In this assay both enantiomers were seen to inhibit muco-glycoconjugate production at concentrations>40 μM.
smiles,measurement,setting,value
"O=C(O)c1cccnc1Nc1cccc(C(F)(F)F)c1 [NFA, niflumic acid]",Viability of activated Caco2 cells,[1],not affected; also recorded: did not effect their viability
same,Serum IgE levels,[2],no effect
same,Antigen-induced airway hyperresponsiveness,[2]; vs PBS,suppress airway hyperresponsiveness; also recorded: suppresses antigen-induced airway hyperresponsiveness
same,BAL lung eosinophilia,[2]; vs PBS,suppress; also recorded: reduces antigen-induced lung eosinophilia
same,Over-production of mucus in the lung caused by exposure to antigen,[2]; vs PBS,suppress the over-production of mucus; also recorded: blocks increased mucin expression
same,Mucin production in IL9 transgenic lungs,IL9 transgenic mice,decreased mucin production
same,Eotaxin production,activated LHL4 cells,Significant inhibition; also recorded: blocks epithelial activation including chemokine production
same,PAS positive staining mucin glycoconjugates,activated Caco2 cells,significantly fewer positive staining mucin glycoconjugates; also recorded: blocks mucin overproduction in vitro
same,PAS positive staining muco-glycoconjugates,NCI-H292/hCLCA1 cells,significantly fewer positive staining muco-glycoconjugates
